{"source": "patent US11840686B2", "about": "“Modulation of prekallikrein (PKK) expression” (Ionis Pharmaceuticals, Inc., priority 2013, dated 2023)", "note": "Strand notation (5' to 3'): a small letter for the sugar, then the base; units joined by * are phosphorothioate-linked, units joined directly phosphodiester-linked; [ ] holds rarer units or linkages, { } end groups; capitals alone tell only the bases. e = 2'-O-(2-methoxyethyl) (MOE); [5mC] = 5-methylcytosine; d = 2'-deoxy (DNA)"}
{"system": "human PKK mRNA", "assay": "Antisense inhibition of human PKK mRNA in HepaRG cells, 3,000 nM (Example 1)", "format": "cell-based", "conditions": "Table 2; PKK mRNA, HepaRG cells, 3,000 nM, electroporation, ~24 h, relative to untreated control cells", "in_short": "(§1)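 Values give percent PKK mRNA reduction relative to untreated controls, normalised to RIBOGREEN total RNA. mRNA was quantified by real-time PCR (RTS3454) about 24 h after electroporation. Each 20-mer MOE gapmer was delivered at 3,000 nM into 20,000 HepaRG cells per well.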", "units": {"% inhibition": "%"}}
{"substance": "531073 (e[5mC]*e[5mC]*e[5mC]*eA*eG*dG*d[5mC]*dT*d[5mC]*dA*dG*dA*dA*dT*dT*eT*eG*eA*e[5mC]*eT; antisense) [compound 531073]", "% inhibition": 51}
{"substance": "531074 (e[5mC]*eT*eT*eT*eG*d[5mC]*dA*dG*dA*dT*dG*dA*dG*dG*dA*e[5mC]*e[5mC]*e[5mC]*e[5mC]*e[5mC]; antisense) [compound 531074]", "% inhibition": 67}
{"substance": "531075 (e[5mC]*e[5mC]*eA*eT*eG*d[5mC]*dT*dT*dT*dG*d[5mC]*dA*dG*dA*dT*eG*eA*eG*eG*eA; antisense) [compound 531075]", "% inhibition": 64}
{"substance": "531076 (eA*e[5mC]*eT*e[5mC]*eT*d[5mC]*d[5mC]*dA*dT*dG*d[5mC]*dT*dT*dT*dG*e[5mC]*eA*eG*eA*eT; antisense) [compound 531076]", "% inhibition": 68}
{"substance": "531077 (eA*eT*eG*e[5mC]*e[5mC]*dA*d[5mC]*dT*d[5mC]*dT*d[5mC]*d[5mC]*dA*dT*dG*e[5mC]*eT*eT*eT*eG; antisense) [compound 531077]", "% inhibition": 51}
{"substance": "531079 (eT*e[5mC]*e[5mC]*eT*e[5mC]*dA*dG*d[5mC]*dA*dG*d[5mC]*dT*d[5mC]*dT*dG*eA*eG*eT*eG*e[5mC]; antisense) [compound 531079]", "% inhibition": 58}
{"substance": "531080 (e[5mC]*eA*eT*eT*eG*dT*d[5mC]*d[5mC]*dT*d[5mC]*dA*dG*d[5mC]*dA*dG*e[5mC]*eT*e[5mC]*eT*eG; antisense) [compound 531080]", "% inhibition": 55}
{"substance": "531081 (eT*eG*eG*eT*eT*dT*dT*dT*dG*dG*dA*dA*dT*dT*d[5mC]*eT*eG*eA*eA*eA; antisense) [compound 531081]", "% inhibition": 14}
{"substance": "531082 (eA*eT*eA*eT*eT*dG*dG*dT*dT*dT*dT*dT*dG*dG*dA*eA*eT*eT*e[5mC]*eT; antisense) [compound 531082]", "% inhibition": 31}
{"system": "human PKK mRNA", "assay": "Antisense inhibition of human PKK mRNA in HepaRG cells, 3,000 nM (Example 1)", "format": "cell-based", "conditions": "Table 3; HepaRG cells, electroporation with 3,000 nM antisense oligonucleotide, approx. 24 hours; PKK mRNA by RT-PCR (RTS3454), relative to untreated control cells", "in_short": "as §1", "units": {"% inhibition": "%"}}
{"substance": "531084 (eA*eT*eA*eG*eG*dG*dA*d[5mC]*dA*d[5mC]*dA*dA*d[5mC]*d[5mC]*dA*eA*eG*eG*eA*eA; antisense) [compound 531084]", "% inhibition": 25}
{"substance": "531085 (eA*eG*eG*e[5mC]*eA*d[5mC]*dA*dG*dA*dG*d[5mC]*d[5mC]*dA*dG*d[5mC]*eA*e[5mC]*e[5mC]*e[5mC]*eA; antisense) [compound 531085]", "% inhibition": 9}
{"substance": "531086 (e[5mC]*e[5mC]*eT*eG*e[5mC]*d[5mC]*dT*d[5mC]*d[5mC]*dT*dG*dG*d[5mC]*dA*dG*e[5mC]*e[5mC]*eT*eT*e[5mC]; antisense) [compound 531086]", "% inhibition": 48}
{"substance": "531087 (e[5mC]*e[5mC]*eA*eG*eG*dT*dG*dT*dG*dG*dA*d[5mC]*dA*dG*d[5mC]*eA*eG*e[5mC]*eT*eG; antisense) [compound 531087]", "% inhibition": 52}
{"substance": "531088 (eG*eG*eT*eT*eT*dT*dG*dT*dT*dT*dG*dT*dA*dA*dA*eA*eT*eT*eA*eG; antisense) [compound 531088]", "% inhibition": 27}
{"substance": "531089 (eA*eA*eA*eA*e[5mC]*dA*d[5mC]*d[5mC]*dA*dT*dT*dA*dA*dA*dT*e[5mC]*e[5mC]*eA*eT*eT; antisense) [compound 531089]", "% inhibition": 45}
{"substance": "531090 (eA*e[5mC]*eA*eG*eA*dA*dA*d[5mC]*d[5mC]*dA*dT*dG*dA*dT*dG*eT*eT*eG*e[5mC]*eT; antisense) [compound 531090]", "% inhibition": 59}
{"substance": "531091 (eT*e[5mC]*eA*eG*e[5mC]*d[5mC]*d[5mC]*dA*dA*dT*dG*dT*d[5mC]*d[5mC]*dT*eA*eA*e[5mC]*e[5mC]*eT; antisense) [compound 531091]", "% inhibition": 35}
{"substance": "531092 (e[5mC]*e[5mC]*eT*eT*e[5mC]*dA*d[5mC]*dT*dG*dA*d[5mC]*dT*d[5mC]*dT*d[5mC]*eT*eT*eT*eT*e[5mC]; antisense) [compound 531092]", "% inhibition": 24}
{"substance": "531093 (eT*eT*e[5mC]*eT*e[5mC]*d[5mC]*dT*dG*dG*d[5mC]*dT*d[5mC]*dA*dG*dA*eA*eG*e[5mC]*eT*e[5mC]; antisense) [compound 531093]", "% inhibition": 60}
{"substance": "531094 (eG*eA*eA*eT*eG*dT*d[5mC]*dA*dG*dG*d[5mC]*d[5mC]*dT*d[5mC]*dT*eG*eG*eG*e[5mC]*e[5mC]; antisense) [compound 531094]", "% inhibition": 48}
{"substance": "531095 (e[5mC]*eT*eA*eA*e[5mC]*dA*dA*d[5mC]*d[5mC]*d[5mC]*d[5mC]*dA*d[5mC]*dA*dA*eT*eA*eT*e[5mC]*eA; antisense) [compound 531095]", "% inhibition": 20}
{"substance": "531096 (e[5mC]*e[5mC]*e[5mC]*eA*eA*dT*dT*d[5mC]*dT*dT*dA*dG*dT*d[5mC]*d[5mC]*eT*eT*eT*eA*eA; antisense) [compound 531096]", "% inhibition": 45}
{"substance": "531097 (eA*e[5mC]*e[5mC]*eA*eA*dG*d[5mC]*dT*d[5mC]*dA*dG*d[5mC]*d[5mC]*dT*d[5mC]*e[5mC]*eA*eA*e[5mC]*eT; antisense) [compound 531097]", "% inhibition": 41}
{"substance": "531098 (eT*eT*eA*eT*eT*dA*dG*dT*d[5mC]*dA*dA*dA*dT*d[5mC]*dA*e[5mC]*e[5mC]*e[5mC]*eA*eA; antisense) [compound 531098]", "% inhibition": 19}
{"substance": "531099 (eT*eG*eG*eA*eT*dG*dG*dG*dT*dA*dG*dA*dG*dG*d[5mC]*e[5mC]*eT*eT*eT*e[5mC]; antisense) [compound 531099]", "% inhibition": 64}
{"substance": "531100 (e[5mC]*e[5mC]*e[5mC]*e[5mC]*e[5mC]*dT*d[5mC]*d[5mC]*d[5mC]*dT*dT*d[5mC]*d[5mC]*d[5mC]*dT*eA*e[5mC]*eA*e[5mC]*eA; antisense) [compound 531100]", "% inhibition": 0}
{"substance": "531101 (eA*eT*eG*eT*eA*dA*dG*dT*dT*dA*d[5mC]*dA*dA*dG*d[5mC]*e[5mC]*eA*e[5mC]*eT*eA; antisense) [compound 531101]", "% inhibition": 37}
{"substance": "531102 (eT*eG*e[5mC]*e[5mC]*eT*d[5mC]*dT*dT*dT*dA*dA*dT*dA*dA*dA*eA*eA*e[5mC]*eT*e[5mC]; antisense) [compound 531102]", "% inhibition": 42}
{"substance": "531103 (eA*e[5mC]*eT*e[5mC]*eA*dT*dT*dG*d[5mC]*d[5mC]*dT*dT*dA*dA*d[5mC]*eT*e[5mC]*eA*eG*eG; antisense) [compound 531103]", "% inhibition": 40}
{"substance": "531104 (eA*e[5mC]*eT*eT*eG*dA*d[5mC]*d[5mC]*dT*dT*dA*d[5mC]*dT*dG*dT*eT*eT*eT*eA*eG; antisense) [compound 531104]", "% inhibition": 20}
{"substance": "531105 (e[5mC]*eT*e[5mC]*e[5mC]*eT*d[5mC]*d[5mC]*d[5mC]*d[5mC]*dA*dG*dG*d[5mC]*dT*dG*e[5mC]*eT*e[5mC]*e[5mC]*eT; antisense) [compound 531105]", "% inhibition": 16}
{"substance": "531106 (antisense eA*eA*eG*eA*eT*d[5mC]*dT*dA*dG*dA*dT*dA*dA*dT*dT*e[5mC]*eT*eT*eG*eT) [compound 531106]", "% inhibition": 31}
{"substance": "531107 (antisense eT*e[5mC]*eA*eA*e[5mC]*dT*d[5mC]*dA*d[5mC]*dA*d[5mC]*d[5mC]*dT*dG*dA*e[5mC]*e[5mC]*eT*eA*eA) [compound 531107]", "% inhibition": 30}
{"substance": "531108 (antisense eT*eG*eA*eA*e[5mC]*d[5mC]*d[5mC]*dA*dA*dA*dA*d[5mC]*dT*d[5mC]*dT*eG*eG*e[5mC]*eA*e[5mC]) [compound 531108]", "% inhibition": 50}
{"substance": "531109 (antisense eA*eG*e[5mC]*e[5mC]*e[5mC]*dA*dA*dG*dG*dA*dA*d[5mC]*dA*dT*d[5mC]*eT*e[5mC]*eA*e[5mC]*e[5mC]) [compound 531109]", "% inhibition": 52}
{"substance": "531111 (antisense e[5mC]*eT*eT*e[5mC]*eT*d[5mC]*d[5mC]*dT*dG*dG*d[5mC]*dT*d[5mC]*dA*dG*eA*eA*eG*e[5mC]*eT) [compound 531111]", "% inhibition": 68}
{"substance": "531112 (antisense eA*eT*eG*eT*eA*dT*dG*dA*dT*dT*d[5mC]*dT*dA*dA*dG*eA*eA*e[5mC]*eT*eT) [compound 531112]", "% inhibition": 14}
{"substance": "531113 (antisense eA*eA*e[5mC]*eA*eG*dA*d[5mC]*dA*d[5mC]*dA*dT*dT*dA*dT*dT*eT*eA*eT*eA*eT) [compound 531113]", "% inhibition": 0}
{"substance": "531114 (antisense eA*eG*eA*eG*eT*d[5mC]*dA*dA*dG*dT*d[5mC]*d[5mC]*dA*d[5mC]*dA*eG*eA*e[5mC]*eA*eT) [compound 531114]", "% inhibition": 40}
{"substance": "531115 (antisense eT*e[5mC]*e[5mC]*eT*eA*dA*dA*dT*dA*dG*dG*dA*dA*d[5mC]*dA*eA*eA*eG*eT*eA) [compound 531115]", "% inhibition": 0}
{"substance": "531116 (antisense eT*eT*eG*eT*eT*dA*dA*dG*dG*dT*dT*dG*dT*dA*dG*eA*eG*eA*eG*eA) [compound 531116]", "% inhibition": 23}
{"substance": "531117 (antisense eA*e[5mC]*e[5mC]*e[5mC]*eA*dA*dT*dT*dA*dT*dT*dT*dT*dT*dA*eA*eT*eG*eG*e[5mC]) [compound 531117]", "% inhibition": 62}
{"substance": "531118 (antisense eG*e[5mC]*e[5mC]*eT*eA*dA*dA*dT*dG*dT*dA*dA*dG*dA*dG*e[5mC]*eT*eA*eA*eA) [compound 531118]", "% inhibition": 26}
{"substance": "531119 (antisense eT*eA*eA*eA*e[5mC]*dT*d[5mC]*dT*dT*dA*d[5mC]*dA*dT*dT*dT*eA*eT*eA*eG*eA) [compound 531119]", "% inhibition": 0}
{"substance": "531120 (antisense eA*eA*eA*eT*eA*dA*dA*dA*dG*d[5mC]*dA*d[5mC]*dT*d[5mC]*dA*eG*eA*e[5mC]*eT*eG) [compound 531120]", "% inhibition": 0}
{"substance": "531122 (antisense eT*eA*eA*e[5mC]*eA*dA*dA*dA*dA*dT*dG*d[5mC]*d[5mC]*dT*dT*eG*eT*eG*e[5mC]*e[5mC]) [compound 531122]", "% inhibition": 33}
{"substance": "531124 (antisense eG*eT*eA*e[5mC]*eT*dA*dA*dA*d[5mC]*dA*dT*d[5mC]*d[5mC]*dT*dA*eA*eG*eT*eG*eA) [compound 531124]", "% inhibition": 2}
